Results from US7884131B2, “Oxylipins from long chain polyunsaturated fatty acids and methods of making and using the same” (Martek Biosciences, Corporation, priority 2004, dated 2011).
Entries after “also recorded” stand apart in the source; their conditions may differ.

What was measured:
Soybean 15-lipoxygenase = molecular target: T1, Soybean 15-lipoxygenase (Glycine max, UniProt P08170); assay: 15-lipoxygenase reaction with LCPUFA substrates; type: biochemical; conditions: 100 μM fatty acid, 4 μg/ml enzyme, 0.05M sodium borate buffer pH 9.0, 0° C., absorbance at 238 nm
T1 construct: purchased Sigma-Aldrich
T1 sequence (P08170 1-839): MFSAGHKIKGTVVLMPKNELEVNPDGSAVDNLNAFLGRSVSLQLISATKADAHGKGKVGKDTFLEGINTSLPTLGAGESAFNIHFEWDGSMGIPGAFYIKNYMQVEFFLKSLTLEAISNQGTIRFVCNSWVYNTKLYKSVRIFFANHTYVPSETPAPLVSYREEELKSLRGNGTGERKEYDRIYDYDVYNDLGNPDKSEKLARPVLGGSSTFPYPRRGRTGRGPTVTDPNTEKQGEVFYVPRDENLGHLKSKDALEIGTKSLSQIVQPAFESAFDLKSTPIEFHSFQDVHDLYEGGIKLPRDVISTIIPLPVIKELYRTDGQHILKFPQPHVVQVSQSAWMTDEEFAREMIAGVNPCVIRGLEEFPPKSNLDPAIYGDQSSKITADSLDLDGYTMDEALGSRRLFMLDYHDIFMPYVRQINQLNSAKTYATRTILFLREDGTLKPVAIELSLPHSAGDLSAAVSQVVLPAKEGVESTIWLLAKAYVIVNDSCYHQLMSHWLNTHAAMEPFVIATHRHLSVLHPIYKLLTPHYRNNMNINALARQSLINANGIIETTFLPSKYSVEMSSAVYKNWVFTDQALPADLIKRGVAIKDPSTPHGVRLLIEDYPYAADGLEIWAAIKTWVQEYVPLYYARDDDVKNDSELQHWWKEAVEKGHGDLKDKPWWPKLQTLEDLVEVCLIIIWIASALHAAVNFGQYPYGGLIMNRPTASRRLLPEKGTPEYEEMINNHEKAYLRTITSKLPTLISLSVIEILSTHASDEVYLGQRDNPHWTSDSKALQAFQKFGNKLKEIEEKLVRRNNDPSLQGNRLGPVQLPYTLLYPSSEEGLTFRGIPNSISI
Procedure: Soybean 15-lipoxygenase (Sigma-Aldrich, St. Louis, Mo.) at a final concentration of 4 μg/ml was mixed into 100 μM solutions of DHA, DPAn-6, or DPAn-3 (NuChek Prep, Elysian, Minn.) in 0.05M sodium borate buffer, pH 9.0, and the reaction mixtures were incubated at 0° C. Appearance of the mono-hydroxy conjugated diene derivatives of the fatty acids was monitored through absorbance at 238 nm. Conjugated diene products were quantified using an extinction coefficient of 28,000 M^−1cm^−1 (Shimizu et al; Methods in Enzymology, 1990 Vol 187, 296-306). As shown in Example. 1, 100% of the DPAn-6 was efficiently converted to its conjugated diene derivative under these conditions, whereas about 85% of DPAn-3 and 50% of DHA were converted to their respective conjugated diene (mono-hydroxy) derivative by the 15-lipoxygenase. No appreciable accumulation of the dihydroxy derivatives occurred under these reaction conditions.

[1] = test system: Inflammatory eicosanoid secretion; assay: Consumption of LCPUFA oils: inflammatory eicosanoid secretion; type: in vivo; conditions: compared to DHA alone
[2] = test system: total cell migration into air pouch exudates; assay: Mouse dorsal air pouch model: total cell migration; type: in vivo, C57/B16 mice; conditions: 100 ng docosanoid intra-pouch, 100 ng TNFα, 4 hours after TNFα
Description: (§1) Pure 17R-hydroxy DHA (17R-HDHA) was purchased from Caymen Chemicals (Ann Arbor, Mich.). Docosanoids 17-hydroxy-DPAn-6 (17-HDPAn-6) and 10,17-dihydroxyDPAn-6 (10,17-HDPAn-6) were synthesized biogenically from DPAn-6 (NuChek Prep, Elysian, Minn.) using soybean 15-lipoxygenase (Sigma-Aldrich) and purified by HPLC as described in Example 2. Organic solvents were evaporated and the compounds were re-dissolved in phosphate buffered saline (PBS), filter sterilized and concentrations were adjusted to 1000 ng/ml using molar extinction coefficients of 28,000 and 40,000 M^−1cm^−1 for the mono- and dihydroxy docosanoids, respectively. Female C57/B16 mice (n=10 mice per group) were injected with sterile air subcutaneously in the back to initiate dorsal air pouches. Six days later, 0.9 ml sterile PBS followed by 100 ng docosanoid in 0.1 ml PBS or PBS alone were administered by intra-pouch injection. This injection was followed within 5 min by intra-pouch injection of 100 ng of mouse recombinant TNFα (Peprotech, Inc, NJ, USA) in 0.1 ml PBS. Control animals received no TNFα. As a positive control, 2 mg/kg indomethacin (Calbiochem, San Diego, Calif.) was administered intraperitoneally 30 min prior to administration of TNFα. Four hours after TNFα administration, air pouch exudates were removed and cells were stained with Turk's solution and counted. […]

IL-1β = assay: Mouse dorsal air pouch model: IL-1β in exudates; type: in vivo, C57/B16 mice; conditions: 100 ng docosanoid intra-pouch, 100 ng TNFα, 4 hours after TNFα, ELISA
Description: as §1

[3] = test system: macrophage chemotactic protein-1 (MCP-1); assay: Mouse dorsal air pouch model: MCP-1 in exudates; type: in vivo, C57/B16 mice; conditions: 100 ng docosanoid intra-pouch, 100 ng TNFα, 4 hours after TNFα, ELISA
Description: as §1

[4] = test system: human T lymphocytes stimulated with anti-CD3/anti-CD28 antibodies; assay: TNFα secretion by human T lymphocytes; type: cell-based; conditions: 6 hrs pretreatment, 41 hrs on anti-CD3/anti-CD28 coated wells, ELISA; difference at 10 nM p=0.037
Procedure: FIG. 22A: Effect of Docosanoids on TNFα Secretion by Human T Lymphocytes. The assay was performed essentially as described in Ariel et al, 2005. Briefly, human peripheral blood mononuclear cells were isolated from venous blood by Ficoll-Paque™ Plus (Amersham biosciences) gradient. T lymphocytes were isolated using a human T cell enrichment column (R&D Systems) per manufacturer's instructions. Purified T cells were treated with 10,17-dihydroxy DPAn-6 or 10,17-dihydroxy DHA or vehicle (0.05% ethanol) in RPMI-1640 media containing 10% heat inactivated fetal bovine serum for 6 hrs at 37° C. Lymphocytes (200,000 cells in 200 μl media per well) were then transferred to 96-well plates coated with both anti-CD3 antibody and anti-CD28 antibody (100 μl of 2 μg/ml of each antibody overnight to coat wells) and incubated for 41 hrs. TNFα concentrations were determined in cell supernatants by ELISA (R&D Systems). Group means±stdev (n=4) were compared by Student's t test. *p<0.05 and **p<0.01 compared to control; # indicates statistical difference (p=0.037) between the groups treated with 10,17-dihydroxy DPAn-6 and 10,17-dihydroxy DHA at the 10 nM concentrations.

[5] = test system: inflammatory cytokine production; assay: Consumption of LCPUFA oils: inflammatory cytokine production; type: in vivo; conditions: consumption of the oil; DHA dose approximately three times higher in DHA alone than in the DHA+DPAn-6 oil
[6] = test system: Carrageenan-induced hind paw edema; assay: Rat paw edema study with LCPUFA-containing diets; type: in vivo, Sprague Dawley rats; conditions: diets fed 4 weeks, 1% carrageenan, 3 hours post-injection, Day 28
Procedure: Adult, male, Sprague Dawley rats (n=10/treatment group) were fed modified AIN-76 diets formulated to include 1.2% DHA, 1.2% DHA+0.44% DPAn-6, or 1.2% DHA+0.46% arachidonic acid (ARA) for 4 weeks. Carrageenan (1%) was used to induce hind paw edema on Day 14 (left paw) and Day 28 (right paw) of feeding. Edema was measured plethysmographically using water displacement 3 hours post-injection. Similar results were obtained on day 14. *p≦0.05.

converted to conjugated diene (mono-hydroxy) derivative by the 15-lipoxygenase (Soybean 15-lipoxygenase)	Compound	total number of cells in the air pouch (cell infiltration) [2]	secretion of IL-1β in air pouch exudates (IL-1β)	secretion of MCP-1 in air pouch exudates [3]	further results
	10,17-dihydroxy DPAn-6	significant reductions	significant reductions; also recorded: significantly larger than with that produced by either the DHA oxylipin derivative or indomethacin	significant reductions; also recorded: larger inhibition of MCP-1 secretion than indomethacin	reducing TNFα secretion by T lymphocytes [4]: more potent than the DHA analog (10,17,dihydroxy DHA)
~50%	CC/C=C\C/C=C\C/C=C\C/C=C\C/C=C\C/C=C\CCC(=O)O [DHA, docosahexaenoic acid (C22:6n-3), reference compound]				reduction in inflammatory cytokine production [5]: 13-29%
	CCCCC/C=C\C/C=C\C/C=C\C/C=C\CCCC(=O)O [ARA, arachidonic acid (C20:4n-6)]				reduction in edema volume [6]: reversed the anti-inflammatory activity of DHA
about 85%	CC/C=C\C/C=C\C/C=C\C/C=C\C/C=C\CCCCCC(=O)O [DPAn-3, docosapentaenoic acid (C22:5n-3)]				
	CCCCCC(O)/C=C/C=C\C/C=C\C/C=C\C/C=C\CCC(=O)O (stereo not shown) [17-hydroxy DPAn-6]	significant reductions; also recorded: more potent than both 17R-hydroxy DHA and indomethacin	significant reductions	significant reductions; also recorded: larger inhibition of MCP-1 secretion than indomethacin	

Compound	converted to conjugated diene (mono-hydroxy) derivative by the 15-lipoxygenase (Soybean 15-lipoxygenase)	total number of cells in the air pouch (cell infiltration) [2]	secretion of IL-1β in air pouch exudates (IL-1β)	secretion of MCP-1 in air pouch exudates [3]	further results
docosapentaenoic acid (C22:5n-6) [DPAn-6]	100%				Inflammatory eicosanoid secretion [1]: significantly reduced
